Data taken from patent US8926998B2, “Polycarbonates bearing pendant primary amines for medical applications” (International Business Machines Corporation, priority 2012, dated 2015).

Test system: S. aureus
Assay: Minimal inhibitory concentration (MIC), broth microdilution
Type: cell-based, Staphylococcus aureus
Conditions: free drug
Procedure: Bacteria (S. aureus, S. epidermis and E. coli) and Yeast (C. albicans) obtained from ATCC were reconstituted from its lyophilized form according to the manufacturer's protocol. Bacterial samples were cultured in tryptic soy broth (T-SB) or Mueller Hinton broth (M-HB) solution at 37° C., and yeast cells were cultured in YMB at room temperature under constant shaking of 100 rpm. The MICs of the polymers were measured using the broth microdilution method. Briefly, 100 microliters of the respect broth medium containing a polymer at various concentrations (15.6, 31.3, 62.5, 125, 250, 500, 1000, 2000 mg/L) was placed into each well of a 96-well tissue culture plate. An equal volume of microbial suspension (3×10^5 CFU/mL) was added into each well. Prior to mixing, the microbial sample was first inoculated overnight to enter its log growth phase. The concentration of microbial solution was adjusted to give an initial optical density (O.D.) reading of approximately 0.07 at 600 nm wavelength on a microplate reader (TECAN, Switzerland), which corresponds to the concentration of Mc Farland 1 solution (3×10^8 CFU/mL), the microbial solution was further diluted by 1000 times to achieve an initial loading of 3×10^5 CFU/mL. The bacterial samples were kept in an incubator at 37° C. for 18 hours, while the Yeast samples were kept at room temperature for 42 hours under constant shaking of 100 rpm. […]

CC1(C)S[C@@H]2[C@H](NC(=O)Cc3ccccc3)C(=O)N2[C@H]1C(=O)O [PenG, Penicillin G]
MIC S. aureus: about 0.01 mg/L
